Reference: patent US4673692A, “Diphenylmethylimine derivatives, their compositions and pharmaceutical uses” (Teikoku Hormone Mfg. Co., Ltd., priority 1984, dated 1987)

Legend:
[1] = Pharmacological actions of previously disclosed compound
stomach = experiment: Ulcerogenic activity; format: in vivo, male Wistar rats; conditions: 300 mg/kg, p.o.; 4 hours after dosing; fasted rats
Experimental: The test compound was orally administered by the same way as in the test on anti-inflammatory activity to male Wistar rats weighing 120 to 150 g which had been fasted for 24 hours. Four hours later, they were killed with ether.

carrageenan paw edema = experiment: Anti-inflammatory activity: carrageenan-induced hind paw edema; format: in vivo, Male Wistar rats; conditions: 10 mg/kg, p.o.; carrageenan 1 h after dosing, volume measured 3 h later; 5 rats per group
Experimental: Male Wistar rats weighing 120 to 150 g which had been fasted for 24 hours were used in groups each consisting of 5 rats. In each group, the volumes of the right hind paw were measured by a volume differential meter (made by Ugo Basile Company), and each of the test compounds was suspended in an aqueous solution of 0.5% of carboxymethyl cellulose and 2.0% of Tween 80, and administered orally through a tube. After one hour from the administration, […] suspension of carrageenan in distilled water was subcutaneously injected into the plantar tissues of the right hind paw. Three hours later, the volumes of the right hind paw were again measured. The increase in volume of the right hind paw of each rat in each group (the volume of edema) was measured. The percent edema inhibition was calculated in accordance with the following equation, and the results are shown in Tale 1.

[2] = tested on: adjuvant-induced arthritis; experiment: Preventive effect on adjuvant-induced arthritis; format: in vivo, Sprague-Dawley strain female rats
Experimental: Sprague-Dawley strain female rats, 6 weeks old, were used. Killed and dried M. butyricum (Difco) were suspended (6 mg/ml) in light liquid paraffin, and the suspension was sterilized under pressure to form Freund's complete adjuvant. 0.1 ml of the Freund's complete adjuvant was injected subcutaneously into the right hind paws of the animals to induce arthritis. After the injection of the Freund's complete adjuvant, the test compound was orally administered once a day for 21 consecutive days including the day of injection. The volumes of the left and right hind paws were measured by using the device devised by Fujihira [Eiichi Fujihira: Oyo Yakuri 5, 169-182 (1971)], and the increases in volume from before the injection of the adjuvant was measured and used as an index of swelling. Changes in swelling after the stopping of drug administration were also examined. The animals were used in groups each consisting of 10 members.

5-lipoxygenase = target: T1, 5-lipoxygenase (Rattus norvegicus, UniProt P12527); experiment: 5-lipoxygenase inhibiting action (formation of 5-HETE and 5,12-diHETE) in white blood cells from rat pleural exudate; format: cell-based; conditions: 14C arachidonic acid, A23187, 2 minutes, read-out: concentration inhibiting 50% of the formation of 5-HETE
T1 construct: endogenous in cells; host or cells: white blood cells from the pleural exudate of rats with carrageenan-induced pleurisy
T1 sequence (P12527 1-673): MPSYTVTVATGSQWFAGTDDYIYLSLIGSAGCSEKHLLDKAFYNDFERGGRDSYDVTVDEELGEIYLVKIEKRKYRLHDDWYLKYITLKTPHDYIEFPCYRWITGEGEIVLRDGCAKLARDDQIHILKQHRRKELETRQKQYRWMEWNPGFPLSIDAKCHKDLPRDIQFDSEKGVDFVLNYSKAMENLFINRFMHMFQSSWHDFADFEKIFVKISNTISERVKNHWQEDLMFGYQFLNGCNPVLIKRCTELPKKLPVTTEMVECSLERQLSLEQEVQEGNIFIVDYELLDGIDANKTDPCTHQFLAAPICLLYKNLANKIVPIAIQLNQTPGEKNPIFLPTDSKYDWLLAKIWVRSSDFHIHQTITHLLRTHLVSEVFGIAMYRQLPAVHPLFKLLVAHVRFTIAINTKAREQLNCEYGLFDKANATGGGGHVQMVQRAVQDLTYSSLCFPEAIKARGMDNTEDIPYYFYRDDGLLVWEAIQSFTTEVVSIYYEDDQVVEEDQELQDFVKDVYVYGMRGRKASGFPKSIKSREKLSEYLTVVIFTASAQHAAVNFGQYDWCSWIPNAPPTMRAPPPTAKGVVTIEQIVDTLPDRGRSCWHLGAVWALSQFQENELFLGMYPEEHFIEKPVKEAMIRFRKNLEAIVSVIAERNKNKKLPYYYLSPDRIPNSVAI
Experimental: (§1) The actions of the compounds of this invention to inhibit 5-lipoxygenase and cyclooxygenase activities were measured in accordance with the method of Siegel et al. [Prostaglandins, Vol. 21, page 123 (1981)].
(§2) The exudate was extracted from the pleural cavity of a rat with carrageenan-induced pleurisy. White blood cells from the exudate were suspended in 50 mM Tris-HCl buffer (pH 7.4) containing 100 mM sodium chloride and 1 mM calcium chloride. To a fixed amount of the white blood cell suspension were added a test compound, ^14 C arachidonic acid and a calcium ionophore (A23187), and the mixture was incubated for 2 minutes. […] The radioactivity of each of the fractions was measured by a liquid scintillation counter, and the percentage of the radioactivity of each fraction based on the total radioactivity was calculated (the ratio of formation). The inhibition ratio of the test compound against the synthesis ability of each fraction was determined by using the ratio of formation as an index.
(§3) The lipoxygenase activity was determined by using the formation of 5S-hydroxy-6,8,11,14-eicosatetraenoic acid (5-HETE) and 5S,12R-dihydroxy-6,8,10,14-eicosatetraenoic acid (5,12-diHETE) as indices. The cyclooxygenase activity was determined by using the formation of 12-hydroxyheptadecatrienoic acid (HHT) as an index. […]

cyclooxygenase = experiment: Cyclooxygenase inhibiting action (formation of HHT) in white blood cells from rat pleural exudate; format: cell-based; conditions: 14C arachidonic acid, A23187, 2 minutes, read-out: concentration inhibiting 50% of the formation of HHT
Experimental: as §1, §2, §3

granuloma formation = experiment: Inhibitory effect on granuloma formation (filter paper implantation); format: in vivo, Wistar strain male rats; conditions: Rattus norvegicus, po, 168 h; once a day for 7 days; p<0.001, n=7-8; read-out: dose significantly decreasing the dry weight of granuloma
Experimental: Wistar strain male rats were used. Under anesthesia with hexobarbital-Na (100 mg/kg, i.p.), the hair of the back of each rat was removed. Filter paper pieces prepared in tablet form (Toyo Filter Paper, No. 85K, 9 mm diameter) sterilized under pressure were implanted subcutaneously on the left and right sides of the back, and oily procaine penicillin G (a product of Banyu Pharmaceutical Co., Ltd.; 300,000 units/ml) was intramuscularly injected in an amount of 0.25 ml.
After the implantation of the filter paper pieces, the test compound was orally administered once a day for 7 consecutive days including the day of implantation. On the day next to the day of the final administration, the filter paper pieces and granuloma formed around them were excised, and dried at about 60° C. for 24 hours. Their weight was measured. The weight of the filter paper pieces was subtracted, and the balance was defined as the dry amount of glanuloma.

Which “pharmacological actions such as anti-inflammatory, analgesic or anti-rheumatic activity” value [1] does the source give for `CON=C(c1ccccc1)c1cc(C(C)(C)C)c(O)c(C(C)(C)C)c1` here?
Its value is “does not substantially show pharmacological actions”.

With `CC(C)(C)c1cc(C(=NO)c2ccccc2)cc(C(C)(C)C)c1O` [A, 3,5-di-t-butyl-4-hydroxybenzophenone oxime] as the molecule, how does the gastric trouble (stomach) read?
Its gastric trouble is “no gastric trouble”.

And the “Percent inhibition (edema)” value (carrageenan paw edema)?
The value was 26.7%.

And the minimal effective dose ([2]; Rattus norvegicus, po, 504 h, once a day for 21 days, p<0.05, n=10, read-out: dose significantly inhibiting the development of adjuvant-induced arthritis)?
Its minimal effective dose is no less than 3 mg/kg.

And the “rebound phenomenon in swelling after the stopping of drug administration” value ([2]; after 21 days of oral administration)?
Its value is “No rebound phenomenon was noted”.

And the IC50 (5-lipoxygenase)?
The IC50 was 6.2 µM.

And the IC50 (cyclooxygenase)?
The IC50 was 1.25 µM.

And the minimal effective dose (granuloma formation)?
The minimal effective dose was no less than 3 mg/kg.

For `CC(=O)ON=C(c1ccccc1)c1cc(C(C)(C)C)c(O)c(C(C)(C)C)c1` [B, 3,5-di-t-butyl-4-hydroxybenzophenone O-acetyloxime], which “Percent inhibition (edema)” value (carrageenan paw edema) is on record?
The value was 22.7%.

With `CCC(=O)ON=C(c1ccccc1)c1cc(C(C)(C)C)c(O)c(C(C)(C)C)c1` [C, 3,5-di-t-butyl-4-hydroxybenzophenone O-propionyloxime] as the molecule, how does the “Percent inhibition (edema)” value (carrageenan paw edema) read?
Its value is 23.6%.

For `CC(C)(C)c1cc(C(=NN)c2ccccc2)cc(C(C)(C)C)c1O` [D, 3,5-di-t-butyl-4-hydroxybenzophenone hydrazone], which “Percent inhibition (edema)” value (carrageenan paw edema) is on record?
The value was 21.0%.
